Data: patent US20050107400A1, “Use of pyrazolopyridines as therapeutic compounds” (priority 2001, published 2005)
pIC50: −log10 of the molar value. Read-outs that look alike come from different tables or passages of the source.

Tested on: HSV-1
Assay: HSV-1 replication in infected Vero 76 cells, DNA hybridization capture assay
Assay type: cell-based, herpes simplex virus 1
Method: a) Tissue Culture and HSV Infection.
Vero 76 cells were maintained in MEM with Earle's salts, L-glutamine, 8% FBS (Hyclone, A-1111-L) and 100 units/mL Penicillin-100 μg/mL Streptomycin. For assay conditions, FBS was reduced to 2%. Cells are seeded into 96-well tissue culture plates at a density of 5×10^4 cells/well after being incubated for 45 min at 37° C. in the presence of HSV-1 or HSV-2 (MOI=0.001). Test compounds are added to the wells and the plates are incubated at 37° C. for 40-48 hours. Cell lysates are prepared as follows: media was removed and replaced with 150 μL/well 0.2 N NaOH with 1% Igepal CA 630 or NP-40. Plates were incubated up to 14 days at room temperature in a humidified chamber to prevent evaporation.
(b) Preparation of Detection DNA.
For the detection probe, a gel-purified, digoxigenin-labeled, […] PCR fragment of the HSV UL-15 sequence was utilized. PCR conditions included 0.5 μM primers, 180 μM dTTP, 20 μM dUTP-digoxigenin (Boehringer Mannheim 1558706), 200 μM each of dATP, dCTP, and dGTP, 1×PCR Buffer II (Perkin Elmer), 2.5 mM MgCl2, 0.025 units/μL of AmpliTaq Gold polymerase (Perkin Elmer), and 5 ng of gel-purified HSV DNA per 100 μL Extension conditions were 10 min at 95° C., followed by 30 cycles of 95° C. for 1 min, 55° C. for 30 sec, and 72° C. for 2 min. The amplification was completed with a 10-min incubation at 72° C. Primers were selected to amplify a 728 bp probe spanning a section of the HSV1 UL15 open reading frame (nucleotides 249-977). Single-stranded transcripts were purified with Promega M13 Wizard kits. The final product was mixed 1:1 with a mixture of 6 M GuSCN, 100 mM EDTA and 200 μg/mL herring sperm DNA and stored at 4° C.
(c) Preparation of Capture Plates.
The capture DNA plasmid (HSV UL13 region in pUC) was linearized by cutting with Xba I, denatured for 15 min at 95° C. and diluted immediately into Reacti-Bind DNA Coating Solution (Pierce, 17250, diluted 1:1 with TE buffer, pH 8) at 1 ng/μL. 75 μL/well were added to Corning (#3922 or 9690) white 96-well plates and incubated at room temperature for at least 4 hrs before washing twice with 300 μL/well 0.2×SSC/0.05% Tween-20 (SSC/T buffer). The plates were then incubated overnight at room temperature with 150 μL/well 0.2 N NaOH, 1% IGEPAL and 10 μg/mL herring sperm DNA.
Twenty-seven (27) μL of cell lysate was combined with 45 μL of hybridization solution (final concentration: 3M GuSCN, 50 mM EDTA, 100 μg/ml salmon sperm DNA, 5×Denhardt's solution, 0.25×APE, and 5 ng of the digoxigenin-labeled detection probe). APE is 1.5 M NH4-acetate, 0.15 M NH4H2 phosphate, and 5 mM EDTA adjusted to pH 6.0. Mineral oil (50 μL) was added to prevent evaporation. The hybridization plates were incubated at 95° C. for 10 minutes to denature the DNA, then incubated at 42° C. overnight. The wells were washed 6× with 300 μL/well SSC/T buffer then incubated with 75 μL/well anti-digoxigenin-HRP-conjugated antibody (Boehringer Mannheim 1207733, 1:5000 in TE) for 30 min at room temperature. The wells were washed 6× with 300 μL/well with PBS/0.05% Tween-20 before 75 μL/well SuperSignal LBA substrate (Pierce) was added. The plates were incubated at room temperature for 30 minutes and chemiluminescence was measured in a Wallac Victor reader.
The following results were obtained for HSV-1.

[1] = Human alphaherpesvirus 1, HSV-1 in Vero 76 cells, MOI=0.001, 40-48 hours at 37° C., read-out: IC50

Row | Compound | pIC50 [1] | pIC50 (Human alphaherpesvirus 1, Vero 76)
1 | CCCNc1cc(-c2c(-c3ccc(F)cc3)nn3ccccc23)ccn1 [Example 8, 4-[2-(4-Fluorophenyl)pyrazolo[1,5-a]pyridin-3-yl]-N-propyl-2-pyridinamine] | 5.55 | –
2 | OCCCNc1cc(-c2c(-c3ccc(F)cc3)nn3ccccc23)ccn1 [Example 3, 3-(4-[2-(4-Fluorophenyl)pyrazolo[1,5-a]pyridin-3-yl]-2-pyridinylamino)-1-propanol] | 5.82 | –
3 | CN1CCN(CCCNc2nccc(-c3c(-c4ccc(F)cc4)nn4cc(C(F)(F)F)ccc34)n2)CC1 [Example 32, N-{4-[2-(4-fluorophenyl)-6-(trifluoromethyl)pyrazolo-[1,5-a]pyridin-3-yl]pyrimidin-2-yl}-N-[3-(4-methylpiperazin-1-yl)propyl]amine] | – | 5.00
4 | CCCCNc1nccc(-c2c(-c3ccc(F)cc3)nn3c(CCCC)cccc23)n1 [Example 84, N-Butyl-4-[7-butyl-2-(4-fluorophenyl)pyrazolo[1,5-a]pyridin-3-yl]-2-pyrimidinamine] | 6.22 | –
5 | CC(C)Sc1cc(N2CCOCC2)cc2c(-c3ccnc(NC4CCCC4)n3)c(-c3ccc(F)cc3)nn12 [Example 232, N-Cyclopentyl-4-[2-(4-fluorophenyl)-7-(isopropylthio)-5-morpholin-4-ylpyrazolo[1,5-a]pyridin-3-yl]pyrimidin-2-amine] | 6.05 | –
6 | COC(=O)c1ccc2c(-c3ccnc(NCCCOC(C)=O)c3)c(-c3ccc(F)cc3)nn2c1 [Example 45, Methyl 3-(2-{[3-(acetyloxy)propyl]-amino}-4-pyridinyl)-2-(4-fluorophenyl)pyrazolo[1,5-a]pyridine-6-carboxylate] | 5.59 | –
7 | Fc1ccc(-c2nn3ccccc3c2-c2ccnc(NCc3cccnc3)n2)cc1 [Example 27, 4-[2-(4-Fluorophenyl)pyrazolo[1,5-a]pyridin-3-yl]-N-(3-pyridinylmethyl)-2-pyrimidinamine] | 6.30 | –
8 | CCCCOc1cccc2c(-c3ccnc(NC4CCCC4)n3)c(-c3ccc(OC)cc3)nn12 [Example 228, 4-[7-Butoxy-2-(4-methoxyphenyl)pyrazolo[1,5-a]pyridin-3-yl]-N-cyclopentyl-2-pyrimidinamine] | 6.55 | –
9 | Fc1ccc(-c2nn3ccccc3c2-c2ccnc(NCc3ccccn3)n2)cc1 [Example 28, 4-[2-(4-Fluorophenyl)pyrazolo[1,5-a]pyridin-3-yl]-N-(2-pyridinylmethyl)-2-pyrimidinamine] | 6.14 | –
10 | CCCCNc1cc(-c2c(-c3ccc(F)cc3)nn3ccccc23)ccn1 [Example 2, N-Butyl-4-[2-(4-fluorophenyl)pyrazolo[1,5-a]pyridin-3-yl]-2-pyridinamine] | 5.80 | –
11 | CCCCCCNc1cc(-c2c(-c3ccc(F)cc3)nn3ccccc23)ccn1 [Example 5, 4-[2-(4-Fluorophenyl)pyrazolo[1,5-a]pyridin-3-yl]-N-hexyl-2-pyridinamine] | 5.30 | –
12 | Fc1ccc(-c2nn3ccc(Cl)cc3c2-c2nc(NC3CCCC3)ncc2Br)cc1 [Example 93, 5-Bromo-4-[5-chloro-2-(4-fluorophenyl)pyrazolo[1,5-a]pyridin-3-yl]-N-cyclopentyl pyrimidin-2-amine] | 5.59 | –
13 | COc1ccc(CNc2cc(-c3c(-c4ccc(F)cc4)nn4ccccc34)ccn2)cc1 [Example 6, 4-[2-(4-Fluorophenyl)pyrazolo[1,5-a]pyridin-3-yl]-N-(4-methoxybenzyl)-2-pyridinamine] | 5.38 | –
14 | Fc1ccc(-c2nn3c(OCC(F)(F)F)cccc3c2-c2ccnc(OCC(F)(F)F)n2)cc1 [Example 68, 2-(4-Fluorophenyl)-3-(4-(2-(2,2,2-trifluoroethoxy))pyrimidinyl)-7-(2,2,2-trifluoroethoxy)pyrazolo[1,5-a]pyridine] | 4.82 | –
15 | CCCCOc1cc(-c2c(-c3ccc(F)cc3)nn3ccccc23)ccn1 [Example 91, 3-(2-Butoxypyridin-4-yl)-2-(4-fluorophenyl)pyrazolo[1,5-a]pyridine] | 4.96 | –
16 | OCCNc1cc(-c2c(-c3ccc(F)cc3)nn3ccccc23)ccn1 [Example 9, 2-(4-[2-(4-Fluorophenyl)pyrazolo[1,5-a]pyridin-3-yl]-2-pyridinylamino)-1-ethanol] | 5.62 | –
17 | COc1nccc(-c2c(-c3ccc(F)cc3)nn3c(OCC(F)(F)F)cccc23)n1 [Example 66, 2-(4-Fluorophenyl)-3-(4-(2-methyloxy)pyrimidinyl)-7-(2,2,2-trifluoroethoxy)pyrazolo[1,5-a]pyridine] | 4.60 | –
18 | COc1ccc(-c2nn3ccccc3c2-c2ccnc(NC3CCCC3)n2)c(OC)c1 [Example 92, N-Cyclopentyl-4-[2-(2,4-dimethoxyphenyl)pyrazolo[1,5-a]pyridin-3-yl]pyrimidin-2-amine] | 4.70 | –
19 | Fc1ccc(-c2nn3ccccc3c2-c2ccnc(NCc3cccnc3)c2)cc1 [Example 7, 4-[2-(4-Fluorophenyl)pyrazolo[1,5-a]pyridin-3-yl]-N-(3-pyridinylmethyl)-2-pyridinamine] | 5.21 | –

Continued, in another order:

Row | pIC50 [1] | Compound | pIC50 (Human alphaherpesvirus 1, Vero 76)
20 | 4.80 | Fc1ccc(-c2nn3cc(C(F)(F)F)ccc3c2-c2ccnc(NCc3ccccc3)n2)cc1 [Example 20, N-Benzyl-4-[2-(4-fluorophenyl)-6-trifluoromethylpyrazolo[1,5-a]pyridin-3-yl]-2-pyrimidinamine] | –
21 | 5.26 | CCOC(OCC)(OCC)c1ccc2c(-c3ccnc(NC4CC4)n3)c(-c3ccc(OC)cc3)nn2c1 [Example 96, N-Cyclopropyl-4-[2-(4-methoxyphenyl)-6-(triethoxymethyl)pyrazolo[1,5-a]pyridin-3-yl]pyrimidin-2-amine] | –
22 | 6.05 | O=C(NC1CC1)c1ccc2c(-c3ccnc(NC4CC4)n3)c(-c3ccc(F)cc3)nn2c1 [Example 48, N-Cyclopropyl-3-[2-(cyclopropylamino)-4-pyrimidinyl]-2-(4-fluorophenyl)pyrazolo[1,5-a]pyridine-6-carboxamide] | –
23 | 5.96 | COCCNC(=O)c1ccc2c(-c3ccnc(NC4CC4)n3)c(-c3ccc(OC)cc3)nn2c1 [Example 98, 3-[2-(Cyclopropylamino)pyrimidin-4-yl]-N-(2-methoxyethyl)-2-(4-methoxyphenyl)pyrazolo[1,5-a]pyridine-6-carboxamide] | –
24 | 5.62 | Fc1ccc(-c2nn3cc(Cl)ccc3c2-c2ccc(NC3CC3)nc2)cc1 [Example 43, 5-[6-Chloro-2-(4-fluorophenyl)-pyrazolo[1,5-a]pyridin-3-yl]-N-cyclopropyl-2-pyridinamine] | –
25 | 5.27 | Nc1nccc(-c2c(-c3ccc(F)cc3)nn3ccccc23)n1 [Example 18, 4-[2-(4-Fluorophenyl)pyrazolo[1,5-a]pyridin-3-yl]-2-pyrimidinamine] | –
26 | 4.82 | CN(C)C(=O)c1cccc2c(-c3ccnc(NC4CC4)n3)c(-c3ccc(F)cc3)nn12 [Example 88, Dimethyl 2-(4-fluorophenyl)-3-(4-(2-cyclopropylamino)pyrimidinyl)-7-pyrazolo[1,5-a]pyridinylcarboxamide] | –
27 | < 4.70 | CCCCNc1nccc(-c2c(-c3ccc(F)cc3)nn3ccccc23)n1 [Example 16, N-Butyl-4-[2-(4-fluorophenyl)pyrazolo[1,5-a]pyridin-3-yl]-2-pyrimidin-amine] | –
28 | 6.00 | OCCCNc1nccc(-c2c(-c3ccc(F)cc3)nn3cc(C(F)(F)F)ccc23)n1 [Example 23, 3-(4-[2-(4-Fluorophenyl)-6-trifluoromethylpyrazolo[1,5-a]pyridin-3-yl]-2-pyrimidinylamino)-1-propanol] | –
29 | 6.00 | CN(C)C(=O)c1ccc2c(-c3ccnc(NC4CC4)n3)c(-c3ccc(F)cc3)nn2c1 [Example 47, 3-[2-(Cyclopropylamino)-4-pyrimidinyl]-2-(4-fluorophenyl)-N,N-dimethylpyrazolo[1,5-a]pyridine-6-carboxamide] | –
